Target: Replicase polyprotein 1ab (Severe acute respiratory syndrome coronavirus 2, UniProt P0DTD1)
Assay: Inhibition of SARS-CoV-2 PLpro using Z-RLRGG-AMC as substrate preincubated for 30 mins followed by substrate addition and measured after 60 mins by SpectraMax microplate reader analysis

Compound: CCOC(=O)[C@@H]1O[C@H]1C(=O)NNC(=O)CCc1ccccc1C(=O)N[C@H](N)c1cc(-c2cnn(C)c2)nc2ccccc12
- IC50: 2 nM

Compound: CCOC(=O)[C@H]1O[C@@H]1C(=O)NNC(=O)CCc1ccccc1C(=O)N[C@H](N)c1cc(-c2cnn(C)c2)nc2ccccc12
- IC50: 2 nM

Compound: COC(=O)[C@H]1O[C@@H]1C(=O)NNC(=O)CCc1ccccc1C(=O)N[C@H](N)c1cc(-c2cnn(C)c2)nc2ccccc12
- IC50: 2 nM

Compound: Cn1cc(-c2cc([C@@H](N)NC(=O)c3ccccc3CCC(=O)NNC(=O)[C@H]3O[C@@H]3C(=O)O)c3ccccc3n2)cn1
- IC50: 1 nM
